Data on 17 compounds can be found in ChEMBL document CHEMBL4130574, “Discovery of novel 2,4-diarylaminopyrimidine analogues as ALK and ROS1 dual inhibitors to overcome crizotinib-resistant mutants including G1202R” (Eur J Med Chem, 2018).

Test [1] deals with T1, ALK tyrosine kinase receptor (Homo sapiens, UniProt Q9UM73).
Description: Inhibition of recombinant human N-terminal GST-tagged ALK cytoplasmic domain (1058 to 1620 residues) expressed in baculovirus expression system using peptide substrate after 1 hr by mobility shift assay
The next test deals with A549. The test can be described thus: cells. The conditions noted are these: Homo sapiens, A549, 72 h.
Another test deals with NCI-H460. Briefly: cells. The conditions noted are these: Homo sapiens, NCI-H460, 72 h.
For test [2], the target named is Epidermal growth factor receptor (Homo sapiens, UniProt P00533).
Description: Inhibition of recombinant human N-terminal GST-tagged EGFR cytoplasmic domain (669 to 1210 residues) expressed in baculovirus expression system using peptide substrate after 1 hr by mobility shift assay
The target of test [3] is Hepatocyte growth factor receptor (Homo sapiens, UniProt P08581). The test can be described thus: Inhibition of recombinant human N-terminal GST-tagged c-MET cytoplasmic domain (956 to 1390 residues) expressed in baculovirus expression system using peptide substrate after 1 hr by mobility shift assay.
The next test has as its system NCI-H2228. Briefly: cells. The conditions noted are these: Homo sapiens, NCI-H2228, 72 h.
Test [4] has as its system HCC78. Briefly: Antiproliferative activity against human HCC78 cells harboring SLC34A2-ROS1 after 72 hrs by MTT assay. It is filed as functional, cell-based. The conditions noted are these: HCC78, 72 h. For orientation: Tetrazolium assays rely on reduction of a dye to a coloured formazan, in cell work by metabolically active cells.
The target of test [5] is T2, Proto-oncogene tyrosine-protein kinase ROS (Homo sapiens, UniProt P08922). The test can be described thus: Inhibition of recombinant human N-terminal GST-tagged ROS1 cytoplasmic domain (1883 to 2347 residues) expressed in baculovirus expression system using peptide substrate after 1 hr by mobility shift assay.
Test [6] has as its system KARPAS-299. Briefly: Antiproliferative activity against human KARPAS299 cells harboring NPM-ALK after 72 hrs by MTT assay. The conditions noted are these: KARPAS-299, 72 h. Format: functional, cell-based.
Test [7] relates to ALK tyrosine kinase receptor (Homo sapiens), Q9UM73 [G1202R].
Test [8] deals with T1, ALK tyrosine kinase receptor. Briefly: Inhibition of ALK phosphorylation in human KARPAS299 cells after 6 hrs by Western blot method. It is filed as cell-based.
Test [9] deals with KARPAS-299. Briefly: Induction of apoptosis in human KARPAS299 cells harboring NPM-ALK after 24 hrs by acridine orange/ethidium bromide staining based fluorescence microscopic method. Format: functional, cell-based.
For test [10], the system named is ALK tyrosine kinase receptor (Homo sapiens), Q9UM73 [L1196M].
The subject of test [11] is HCC78. Briefly: Downregulation of ROS1 protein expression in human HCC78 cells at 100 nM after 6 hrs by Western blot method. It is filed as functional, cell-based. On the technique in general: A western blot detects proteins with antibodies after separation by electrophoresis.
For test [12], the system named is KARPAS-299. Briefly: Downregulation of ALK protein expression in human KARPAS299 cells after 6 hrs by Western blot method. Format: functional, cell-based.
Test [13] concerns the target ALK tyrosine kinase receptor (Homo sapiens, UniProt Q9UM73, C1156Y).
In test [14] the target is ALK tyrosine kinase receptor (Homo sapiens, UniProt Q9UM73, T1151INS).
Test [15] has as its target ALK tyrosine kinase receptor (Homo sapiens, UniProt Q9UM73, L1196M).
Test [16] addresses ALK tyrosine kinase receptor (Homo sapiens, UniProt Q9UM73, G1202R).
For test [17], the target named is ALK tyrosine kinase receptor (Homo sapiens, UniProt Q9UM73, S1206Y).
The target in test [18] is ALK tyrosine kinase receptor (Homo sapiens, UniProt Q9UM73, G1269A).
In test [19] the test system is HCC78. The test can be described thus: Induction of apoptosis in human HCC78 cells harboring SLC34A2-ROS1 after 24 hrs by acridine orange/ethidium bromide staining based fluorescence microscopic method. Format: functional, cell-based.
For test [20], the target named is T2, Proto-oncogene tyrosine-protein kinase ROS. The test can be described thus: Inhibition of ROS1 phosphorylation in human HCC78 cells at 100 nM after 6 hrs by Western blot method. Format: cell-based.
The nature of test [21]: Selectivity ratio of IC50 for human HCC78 cells harboring SLC34A2-ROS1 to IC50 for human KARPAS299 cells harboring NPM-ALK. It is filed as functional.
Test [22] is described as follows: Selectivity ratio of IC50 for human HCC78 cells harboring SLC34A2-ROS1 to IC50 for human NCI-H2228 cells harboring EML4-ALK. Format: functional.

Calls of active or inactive are those of the source. The rule behind the calls is not given here. A value given as a limit tells only on which side of the number the result lay.

Sequence of Epidermal growth factor receptor (P00533 whole entry, the tested form may be a part): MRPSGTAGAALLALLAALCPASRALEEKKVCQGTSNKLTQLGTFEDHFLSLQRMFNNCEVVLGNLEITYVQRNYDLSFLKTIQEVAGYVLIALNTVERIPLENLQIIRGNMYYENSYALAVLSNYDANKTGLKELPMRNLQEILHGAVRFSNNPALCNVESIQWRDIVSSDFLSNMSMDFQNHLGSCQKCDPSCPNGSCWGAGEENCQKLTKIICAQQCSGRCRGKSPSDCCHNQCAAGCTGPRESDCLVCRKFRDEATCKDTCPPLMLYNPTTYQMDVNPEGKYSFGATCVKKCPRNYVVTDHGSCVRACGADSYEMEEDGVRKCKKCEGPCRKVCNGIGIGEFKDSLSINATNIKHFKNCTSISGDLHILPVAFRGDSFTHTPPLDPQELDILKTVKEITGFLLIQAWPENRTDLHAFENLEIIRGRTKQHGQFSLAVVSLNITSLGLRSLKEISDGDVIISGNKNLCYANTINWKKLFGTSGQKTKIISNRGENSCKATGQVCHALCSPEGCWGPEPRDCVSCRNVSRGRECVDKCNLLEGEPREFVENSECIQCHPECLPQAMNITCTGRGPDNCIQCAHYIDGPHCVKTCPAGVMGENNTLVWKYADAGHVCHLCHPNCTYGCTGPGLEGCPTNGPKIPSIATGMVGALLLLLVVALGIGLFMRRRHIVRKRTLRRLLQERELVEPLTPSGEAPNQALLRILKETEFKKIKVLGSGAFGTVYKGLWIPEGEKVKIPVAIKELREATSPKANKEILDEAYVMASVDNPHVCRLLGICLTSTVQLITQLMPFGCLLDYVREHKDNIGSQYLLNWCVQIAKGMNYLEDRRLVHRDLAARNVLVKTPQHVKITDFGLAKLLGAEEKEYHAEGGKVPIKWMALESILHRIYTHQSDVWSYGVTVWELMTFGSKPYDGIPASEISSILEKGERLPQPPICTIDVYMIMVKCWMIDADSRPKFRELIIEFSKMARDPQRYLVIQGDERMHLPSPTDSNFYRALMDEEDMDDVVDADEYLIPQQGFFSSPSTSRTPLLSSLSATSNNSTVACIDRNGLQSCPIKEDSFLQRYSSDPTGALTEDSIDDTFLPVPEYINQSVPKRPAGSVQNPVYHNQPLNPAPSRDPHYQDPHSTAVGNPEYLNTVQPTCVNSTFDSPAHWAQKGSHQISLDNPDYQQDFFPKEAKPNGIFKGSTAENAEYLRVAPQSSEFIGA
Sequence of Hepatocyte growth factor receptor (P08581 whole entry, the tested form may be a part): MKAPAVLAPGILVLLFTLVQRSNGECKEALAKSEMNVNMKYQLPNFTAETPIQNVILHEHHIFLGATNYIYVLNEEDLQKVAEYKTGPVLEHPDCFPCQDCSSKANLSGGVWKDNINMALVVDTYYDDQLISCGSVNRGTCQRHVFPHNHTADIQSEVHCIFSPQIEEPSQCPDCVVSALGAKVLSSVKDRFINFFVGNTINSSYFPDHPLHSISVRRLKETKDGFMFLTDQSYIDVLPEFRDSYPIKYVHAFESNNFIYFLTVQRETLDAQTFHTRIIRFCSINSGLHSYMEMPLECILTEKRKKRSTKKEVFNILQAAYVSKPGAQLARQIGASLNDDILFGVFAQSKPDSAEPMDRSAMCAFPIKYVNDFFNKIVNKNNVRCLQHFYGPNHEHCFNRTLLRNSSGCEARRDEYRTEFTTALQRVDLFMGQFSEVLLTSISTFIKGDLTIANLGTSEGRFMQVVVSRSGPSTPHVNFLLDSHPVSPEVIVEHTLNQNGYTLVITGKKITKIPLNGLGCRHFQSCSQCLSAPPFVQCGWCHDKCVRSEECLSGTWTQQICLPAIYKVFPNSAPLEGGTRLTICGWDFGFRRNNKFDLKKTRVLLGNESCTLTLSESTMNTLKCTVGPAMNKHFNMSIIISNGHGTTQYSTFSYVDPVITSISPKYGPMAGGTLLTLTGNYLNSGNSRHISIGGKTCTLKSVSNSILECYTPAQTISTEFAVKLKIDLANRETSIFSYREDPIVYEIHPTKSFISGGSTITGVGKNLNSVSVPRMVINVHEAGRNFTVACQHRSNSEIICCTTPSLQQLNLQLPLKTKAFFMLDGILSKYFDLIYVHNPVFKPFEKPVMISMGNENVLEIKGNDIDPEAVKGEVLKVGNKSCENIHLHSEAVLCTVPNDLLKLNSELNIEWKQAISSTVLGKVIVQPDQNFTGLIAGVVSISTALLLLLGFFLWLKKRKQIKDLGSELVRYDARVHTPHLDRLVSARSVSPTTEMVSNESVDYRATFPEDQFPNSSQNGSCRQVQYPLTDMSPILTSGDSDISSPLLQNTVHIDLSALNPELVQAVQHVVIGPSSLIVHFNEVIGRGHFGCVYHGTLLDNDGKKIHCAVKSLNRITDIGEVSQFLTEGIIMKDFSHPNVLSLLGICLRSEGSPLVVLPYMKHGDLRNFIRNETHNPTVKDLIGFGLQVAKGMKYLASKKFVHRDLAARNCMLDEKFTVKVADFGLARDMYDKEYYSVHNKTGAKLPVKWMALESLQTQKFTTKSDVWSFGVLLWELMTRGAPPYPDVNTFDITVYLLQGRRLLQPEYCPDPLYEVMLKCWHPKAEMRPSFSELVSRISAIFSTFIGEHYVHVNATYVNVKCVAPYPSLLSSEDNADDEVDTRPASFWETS
T2 sequence (P08922 whole entry, the tested form may be a part): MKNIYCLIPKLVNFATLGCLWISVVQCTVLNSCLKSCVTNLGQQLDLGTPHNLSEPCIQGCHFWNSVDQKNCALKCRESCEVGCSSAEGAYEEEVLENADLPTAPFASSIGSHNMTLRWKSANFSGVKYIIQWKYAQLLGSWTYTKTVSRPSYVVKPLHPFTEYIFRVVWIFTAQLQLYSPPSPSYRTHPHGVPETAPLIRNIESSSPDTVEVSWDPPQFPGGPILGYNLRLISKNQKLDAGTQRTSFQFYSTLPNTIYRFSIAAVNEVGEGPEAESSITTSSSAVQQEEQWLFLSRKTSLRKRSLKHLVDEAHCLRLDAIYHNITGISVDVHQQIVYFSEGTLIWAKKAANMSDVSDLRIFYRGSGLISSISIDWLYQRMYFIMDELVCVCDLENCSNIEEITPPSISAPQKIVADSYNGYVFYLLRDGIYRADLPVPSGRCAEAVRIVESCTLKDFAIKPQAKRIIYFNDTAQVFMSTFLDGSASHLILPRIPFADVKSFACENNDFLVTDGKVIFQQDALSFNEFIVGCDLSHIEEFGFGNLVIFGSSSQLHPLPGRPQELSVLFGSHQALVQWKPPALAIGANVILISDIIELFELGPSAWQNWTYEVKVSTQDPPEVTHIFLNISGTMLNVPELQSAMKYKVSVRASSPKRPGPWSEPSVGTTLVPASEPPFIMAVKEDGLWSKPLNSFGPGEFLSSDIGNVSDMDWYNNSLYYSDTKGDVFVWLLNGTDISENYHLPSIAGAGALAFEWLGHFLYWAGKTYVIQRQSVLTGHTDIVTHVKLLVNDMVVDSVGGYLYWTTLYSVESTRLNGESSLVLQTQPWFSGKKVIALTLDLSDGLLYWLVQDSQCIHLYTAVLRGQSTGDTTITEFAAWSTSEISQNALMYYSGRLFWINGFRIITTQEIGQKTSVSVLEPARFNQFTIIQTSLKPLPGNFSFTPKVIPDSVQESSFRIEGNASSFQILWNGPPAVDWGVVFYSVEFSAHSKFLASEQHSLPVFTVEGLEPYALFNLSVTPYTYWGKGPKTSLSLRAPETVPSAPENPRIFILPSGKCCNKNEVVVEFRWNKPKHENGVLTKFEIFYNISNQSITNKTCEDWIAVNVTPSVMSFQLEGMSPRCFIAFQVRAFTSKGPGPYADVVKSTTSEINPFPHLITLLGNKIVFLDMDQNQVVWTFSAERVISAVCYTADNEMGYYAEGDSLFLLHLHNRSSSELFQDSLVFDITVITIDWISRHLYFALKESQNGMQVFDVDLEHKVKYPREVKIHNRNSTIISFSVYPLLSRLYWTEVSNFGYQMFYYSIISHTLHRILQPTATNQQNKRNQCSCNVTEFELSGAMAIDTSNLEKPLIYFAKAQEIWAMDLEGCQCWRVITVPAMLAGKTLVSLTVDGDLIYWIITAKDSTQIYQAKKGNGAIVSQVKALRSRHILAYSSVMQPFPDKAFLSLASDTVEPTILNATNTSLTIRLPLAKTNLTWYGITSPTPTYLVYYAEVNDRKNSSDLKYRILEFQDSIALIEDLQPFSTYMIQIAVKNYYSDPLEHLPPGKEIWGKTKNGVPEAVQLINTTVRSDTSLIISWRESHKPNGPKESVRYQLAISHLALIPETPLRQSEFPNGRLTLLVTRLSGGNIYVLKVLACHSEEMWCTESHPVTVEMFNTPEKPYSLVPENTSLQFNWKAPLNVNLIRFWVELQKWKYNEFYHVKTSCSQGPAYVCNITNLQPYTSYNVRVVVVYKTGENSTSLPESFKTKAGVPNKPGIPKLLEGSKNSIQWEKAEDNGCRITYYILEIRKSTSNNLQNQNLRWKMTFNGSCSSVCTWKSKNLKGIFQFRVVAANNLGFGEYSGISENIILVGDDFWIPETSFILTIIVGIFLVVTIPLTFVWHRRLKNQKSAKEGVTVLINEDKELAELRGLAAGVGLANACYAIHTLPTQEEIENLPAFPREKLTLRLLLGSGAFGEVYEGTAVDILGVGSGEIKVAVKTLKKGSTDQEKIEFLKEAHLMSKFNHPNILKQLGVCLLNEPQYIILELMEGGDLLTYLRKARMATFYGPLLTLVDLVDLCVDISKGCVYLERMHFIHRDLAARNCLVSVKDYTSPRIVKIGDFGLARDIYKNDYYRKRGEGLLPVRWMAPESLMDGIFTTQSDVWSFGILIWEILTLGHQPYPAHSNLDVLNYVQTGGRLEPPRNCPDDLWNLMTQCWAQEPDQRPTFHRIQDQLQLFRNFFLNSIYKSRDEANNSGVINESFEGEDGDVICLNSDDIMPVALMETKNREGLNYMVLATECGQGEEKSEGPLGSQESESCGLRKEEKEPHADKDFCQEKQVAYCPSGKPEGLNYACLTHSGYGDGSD
Description for A549: Antiproliferative activity against human A549 cells harboring EGFR after 72 hrs by MTT assay
Description for NCI-H2228: Antiproliferative activity against human NCI-H2228 cells harboring EML4-ALK after 72 hrs by MTT assay
Description for NCI-H460: Antiproliferative activity against human NCI-H460 cells after 72 hrs by MTT assay

On to `COc1cc(-n2cc(CN3CCC(C)CC3)nn2)ccc1Nc1ncc(Cl)c(Nc2ccccc2S(=O)(=O)C(C)C)n1`, for which the IC50 (usually the point on the concentration scale where inhibition reaches its midpoint) in test [1] is 3.9 nM; in the test with A549 it was over 1000 nM; in the test with NCI-H460 it was over 1000 nM; in test [2], over 1000 nM; in [3] it was 703 nM; in the test on NCI-H2228 it was 190 nM. In addition, the values for the IC50 (in the test with HCC78 [4]; in [5]; with KARPAS-299 [6]) were 320 nM, 4.6 nM and 250 nM, respectively.

Take `COc1cc(-n2cc(CN3CCN(C)CC3)nn2)ccc1Nc1ncc(Cl)c(Nc2ccccc2S(=O)(=O)C(C)C)n1`: the results for the Ratio IC50 in [7] and in test [10] were 10 and 11, respectively. Further, the inhibition result in [8] is “Dose-dependent effect”. In addition, the Activity entry in the test with KARPAS-299 [9], in the test on KARPAS-299 [12] and in the test on HCC78 [19] was “Dose-dependent effect” throughout. For the same compound, the outcome in the test with HCC78 [11] was Active. Besides, the IC50 in [1] is 1.4 nM; in test [13], 3 nM; in the test on A549, over 1000 nM; in test [14] it was 2.3 nM; in the test with NCI-H460 it was over 1000 nM; in test [15], 3.1 nM. In addition, the IC50 is 8.7 nM in test [16]; over 1000 nM in test [2]; over 1000 nM in test [3]; 4.6 nM in test [17]; 95 nM in the test on NCI-H2228; 2.8 nM in test [18]. For the same compound, the IC50 worked out at 40 nM in the test with HCC78 [4], 1.1 nM in test [5] and 21 nM with KARPAS-299 [6]. Further, the inhibition result in [20] was “Active”.

For `COc1cc(-c2nc(CN3CCC(C)CC3)cs2)ccc1Nc1ncc(Cl)c(Nc2ccccc2S(=O)(=O)C(C)C)n1`, the IC50 is 3 nM in test [1]; 800 nM in the test on A549; over 1000 nM in the test with NCI-H460; over 1000 nM in test [2]; 967 nM in test [3]; 230 nM with NCI-H2228. Further, the values for the IC50 (in the test with HCC78 [4]; in test [5]; with KARPAS-299 [6]) were 380 nM, 8.5 nM and 190 nM, respectively.

Regarding `CC(C)Oc1cc(-c2nc(CN3CCN(C)CC3)cs2)ccc1Nc1ncc(Cl)c(Nc2ccccc2S(=O)(=O)C(C)C)n1`, the IC50 was 3.4 nM in test [1]; over 1000 nM in the test on A549; over 1000 nM in the test with NCI-H460; over 1000 nM in [2]; over 1000 nM in [3]; 99 nM in the test with NCI-H2228. For the same compound, the IC50 in the test on HCC78 [4] is 810 nM; in test [5] it was 19.3 nM; in the test on KARPAS-299 [6], 28 nM.

`COc1cc(-n2cc(CN3CCNCC3)nn2)ccc1Nc1ncc(Cl)c(Nc2ccccc2S(=O)(=O)C(C)C)n1`: the IC50 was 4.3 nM in test [1]; over 1000 nM with A549; over 1000 nM in the test on NCI-H460; 890 nM in [2]; over 1000 nM in [3]; 87 nM in the test with NCI-H2228. Besides, the IC50 is 81 nM in the test with HCC78 [4], 8 nM in test [5] and 35 nM with KARPAS-299 [6].

In the case of `COc1cc(-n2cc(CN3C[C@@H](C)N[C@@H](C)C3)nn2)ccc1Nc1ncc(Cl)c(Nc2ccccc2S(=O)(=O)C(C)C)n1`, the concentration for half-maximal inhibition (IC50) was 3 nM in [1]; over 1000 nM in the test with A549; 880 nM in the test with NCI-H460; 865 nM in test [2]; 731 nM in [3]; 80 nM with NCI-H2228. Also, the values for the IC50 (with HCC78 [4]; in [5]; in the test with KARPAS-299 [6]) were 96 nM, 3 nM and 37 nM, respectively.

Turning to `COc1cc(-c2nc(CN3CCN(C)CC3)cs2)ccc1Nc1ncc(Cl)c(Nc2ccccc2S(=O)(=O)C(C)C)n1`, the “Ratio IC50” value in test [21] and in test [22] was 2.3 each time. Further, the IC50 was 2.3 nM in [1]; over 1000 nM with A549; 870 nM in the test with NCI-H460; over 1000 nM in [2]; 820 nM in test [3]; 98 nM in the test with NCI-H2228. The IC50 in the test with HCC78 [4] was determined as 93 nM; in test [5], 9.8 nM; with KARPAS-299 [6], 22 nM.

For `COc1cc(-n2cc(CN3CCCC3)nn2)ccc1Nc1ncc(Cl)c(Nc2ccccc2S(=O)(=O)C(C)C)n1`, the IC50 in the test on A549 is over 1000 nM; in the test on NCI-H460 it was over 1000 nM; in the test on NCI-H2228, 410 nM; in the test on HCC78 [4] it was 270 nM; in the test with KARPAS-299 [6], 380 nM.

In the case of `COc1cc(-c2nc(CNCCO)cs2)ccc1Nc1ncc(Cl)c(Nc2ccccc2S(=O)(=O)C(C)C)n1`, the IC50 in the test on A549 is over 1000 nM; in the test with NCI-H460 it was over 1000 nM; in the test with NCI-H2228 it was 300 nM; with HCC78 [4], 330 nM; in the test on KARPAS-299 [6], 230 nM.

Regarding `CC(C)Oc1cc(-c2nc(CN3CCC[C@H]3CO)cs2)ccc1Nc1ncc(Cl)c(Nc2ccccc2S(=O)(=O)C(C)C)n1`, the IC50 in the test with A549 was 850 nM; in the test with NCI-H460 it was over 1000 nM; with NCI-H2228, 300 nM; in the test on HCC78 [4], over 1000 nM; in the test on KARPAS-299 [6], 200 nM.

Take `COc1cc(-n2cc(CN3CCCCC3)nn2)ccc1Nc1ncc(Cl)c(Nc2ccccc2S(=O)(=O)C(C)C)n1`: the half-maximal inhibitory concentration (IC50) with A549 was over 1000 nM; in the test with NCI-H460, 970 nM; in the test on NCI-H2228 it was 200 nM; in the test on HCC78 [4] it was 180 nM; in the test on KARPAS-299 [6] it was 130 nM.

Consider `CC(C)Oc1cc(-c2nc(CNCCO)cs2)ccc1Nc1ncc(Cl)c(Nc2ccccc2S(=O)(=O)C(C)C)n1`, for which the IC50 was over 1000 nM in the test on A549; over 1000 nM in the test on NCI-H460; 350 nM in the test with NCI-H2228; over 1000 nM in the test on HCC78 [4]; 190 nM in the test on KARPAS-299 [6].

Take `COc1cc(-c2nc(CN3CCOCC3)cs2)ccc1Nc1ncc(Cl)c(Nc2ccccc2S(=O)(=O)C(C)C)n1`: the IC50 with A549 was over 1000 nM; with NCI-H460 it was over 1000 nM; in the test with NCI-H2228, 130 nM; in the test with HCC78 [4], 490 nM; with KARPAS-299 [6], 150 nM.

Take `CC(C)Oc1cc(-c2nc(CN3CCN(CCO)CC3)cs2)ccc1Nc1ncc(Cl)c(Nc2ccccc2S(=O)(=O)C(C)C)n1`: the IC50 is 4 nM in test [1]; over 1000 nM in the test on A549; over 1000 nM in the test with NCI-H460; over 1000 nM in test [2]; over 1000 nM in test [3]; 89 nM with NCI-H2228. The IC50 came to 580 nM in the test on HCC78 [4], 13.4 nM in test [5] and 22 nM in the test on KARPAS-299 [6].

Consider `COc1cc(-n2cc(CN3CCOCC3)nn2)ccc1Nc1ncc(Cl)c(Nc2ccccc2S(=O)(=O)C(C)C)n1`, for which the IC50 in the test with A549 was over 1000 nM; in the test with NCI-H460 it was over 1000 nM; in the test with NCI-H2228, 150 nM; in the test with HCC78 [4], 240 nM; in the test with KARPAS-299 [6] it was 180 nM.

As to `COc1cc(-n2cc(CN3CCN(C(C)=O)CC3)nn2)ccc1Nc1ncc(Cl)c(Nc2ccccc2S(=O)(=O)C(C)C)n1`, the IC50 in the test on A549 was over 1000 nM; with NCI-H460, over 1000 nM; in the test with NCI-H2228, 310 nM; in the test with HCC78 [4], 350 nM; with KARPAS-299 [6] it was 280 nM.

With `COc1cc(-n2cc(CNO)nn2)ccc1Nc1ncc(Cl)c(Nc2ccccc2S(=O)(=O)C(C)C)n1`, the IC50 in the test on A549 is over 1000 nM; in the test with NCI-H460, over 1000 nM; with NCI-H2228, over 1000 nM; in the test with HCC78 [4], over 1000 nM; with KARPAS-299 [6], 820 nM.
